Experiments:
[1] = molecular target: T1, human IDO (IDO1-expressing HEK293 cells) (Homo sapiens, UniProt P14902); experiment: Cell based kynurenine assay, IDO1-expressing HEK293 cell clones; conditions: IDO1-expressing HEK293 cells, 24 hours incubation; geometric mean; read-out: HEK293 IDO1 Kynurenine GMean IC50 (μM) (Cellular Assay)
T1 construct: expressed in transfected cells
Procedure: (§1) Determine Inhibitor Activity Against IDO or TDO in Cell Based Kynurenine Assay
(§2) IDO1-expressing or TDO-expressing HEK293 cell clones are generated upon stable transfection of plasmids expressing human IDO or human TDO under the control of CMV promoter. Cells are selected in DMEM media supplemented with 10% fetal bovine serum and 1 mg/ml G418 at 37° C. in a humidified incubator supplied with 5% CO2. The assays are performed as follows.
(§3) Cells were seeded in a 96 well plate in 50 μL of culture media at a density of 2.5×10^4 per well. Serial dilutions of compounds (in total volume of 50 μL culture media) are added into cells. 4 wells containing 0.2% DMSO treated cells serve as high controls and 4 wells containing media only with 0.2% DMSO serve as low controls. After 24 hours of incubation, the supernatant was transferred to a 384 well reaction plate and the kynurenine level determined. The percentage inhibition at individual concentrations relative to high and low controls is calculated. The data is analyzed by using nonlinear regression to generate IC50 values.

[2] = molecular target: T2, Human Tryptophan 2,3-dioxygenase (TDO) (Homo sapiens, UniProt P48775); experiment: Human TDO enzymatic assay (kynurenine level); type: biochemical; conditions: 1 nM TDO, 350 μM L-Trp; geometric mean; read-out: TDO GMean: IC50 (μM) (Biochemical Assay)
T2 construct: His tag (N); made in house; host or cells: E. coli
Procedure, shortened: (§4)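 N-His human IDO (6 nM, 10 μM L-Trp, 5 μM methylene blue, 20 min) or TDO (1 nM, 350 μM L-Trp, 0.4 μM methylene blue, 70 min) run at room temp in pH 6.5 phosphate with ascorbate, catalase, Tween 20. TCA stop, 30 min 50 °C converts N-formylkynurenine to kynurenine; IC50 by nonlinear regression.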

[3] = molecular target: T3, human TDO (TDO-expressing HEK293 cells) (Homo sapiens, UniProt P48775); experiment: Cell based kynurenine assay, TDO-expressing HEK293 cell clones; conditions: TDO-expressing HEK293 cells, 24 hours incubation; geometric mean; read-out: HEK293 TDO Kynurenine GMean IC50 (μM) (Cellular Assay)
T3 construct: expressed in transfected cells
Procedure: as §1, §2, §3

[4] = molecular target: T4, Human Indoleamine 2,3-dioxygenase (IDO) (Homo sapiens, UniProt P14902); experiment: Human IDO enzymatic assay (kynurenine level); type: biochemical; conditions: 6 nM IDO, 10 μM L-Trp; geometric mean; read-out: IDO1 GMean: IC50 (μM) (Biochemical Assay)
T4 construct: His tag (N); made in house; host or cells: E. coli
Procedure, shortened: as §4

T2 sequence (P48775 whole entry): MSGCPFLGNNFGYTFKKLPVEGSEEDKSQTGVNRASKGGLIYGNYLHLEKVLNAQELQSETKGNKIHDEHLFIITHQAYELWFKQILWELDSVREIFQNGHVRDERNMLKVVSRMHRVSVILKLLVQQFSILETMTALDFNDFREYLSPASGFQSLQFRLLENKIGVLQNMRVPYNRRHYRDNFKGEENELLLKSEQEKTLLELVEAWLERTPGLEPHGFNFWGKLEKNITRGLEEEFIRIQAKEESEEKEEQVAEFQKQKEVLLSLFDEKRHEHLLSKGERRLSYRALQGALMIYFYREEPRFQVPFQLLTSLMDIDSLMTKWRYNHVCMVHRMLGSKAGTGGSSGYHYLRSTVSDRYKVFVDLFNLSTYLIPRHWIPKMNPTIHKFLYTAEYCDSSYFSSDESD
T3 sequence (P48775 whole entry): as above
T4 sequence (P14902 whole entry): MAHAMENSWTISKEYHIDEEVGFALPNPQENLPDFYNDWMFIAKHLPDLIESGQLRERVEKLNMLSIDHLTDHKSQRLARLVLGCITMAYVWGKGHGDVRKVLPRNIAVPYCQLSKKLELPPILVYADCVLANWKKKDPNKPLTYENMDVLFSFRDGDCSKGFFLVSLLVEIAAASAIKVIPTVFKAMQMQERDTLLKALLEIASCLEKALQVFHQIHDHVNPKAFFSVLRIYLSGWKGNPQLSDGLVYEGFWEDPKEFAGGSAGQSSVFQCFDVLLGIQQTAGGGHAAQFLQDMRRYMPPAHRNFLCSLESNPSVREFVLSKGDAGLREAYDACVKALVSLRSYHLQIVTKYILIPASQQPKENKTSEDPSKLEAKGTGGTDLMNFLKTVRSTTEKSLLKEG
T1 sequence (P14902 whole entry): as above

IC50 [1]	IC50 [2]	IC50 [3]	IC50 [4]	Compound
0.0001 to 10 µM	0.0001 to 10 µM	0.0001 to 10 µM	0.0001 to 10 µM	OC(c1cc(Cl)cc2cn[nH]c12)C1(F)CCC(F)(F)CC1 (centres unmarked) [Compound P-0033, (5-chloro-1H-indazol-7-yl)(1,4,4-trifluorocyclohexyl)methanol]
0.0001 to 10 µM	0.0001 to 10 µM	0.0001 to 10 µM	0.0001 to 10 µM	CS(=O)(=O)N1CCC2(CC1)CC(O)(c1cc(Cl)cc3cn[nH]c13)C2 [Compound P-0034, 2-(5-chloro-1H-indazol-7-yl)-7-(methylsulfonyl)-7-azaspiro[3.5]nonan-2-ol]
> 10 µM	0.0001 to 10 µM	0.0001 to 10 µM	0.0001 to 10 µM	O=S(=O)(C1CC1)N1CCC2(CC1)CC(O)(c1cc(Cl)cc3cn[nH]c13)C2 [Compound P-0035, 2-(5-chloro-1H-indazol-7-yl)-7-(cyclopropylsulfonyl)-7-azaspiro[3.5]nonan-2-ol]
> 10 µM	0.0001 to 10 µM	0.0001 to 10 µM	0.0001 to 10 µM	CS(=O)(=O)NC1CC(O)(c2cc(Cl)cc3cn[nH]c23)C1 (centres unmarked) [Compound P-0038, N-(3-(5-chloro-1H-indazol-7-yl)-3-hydroxycyclobutyl)methanesulfonamide]
0.0001 to 10 µM	0.0001 to 10 µM	0.0001 to 10 µM	0.0001 to 10 µM	OC1(c2cc(Cl)cc3cn[nH]c23)CC2(COC2)C1 [Compound P-0039, 6-(5-chloro-1H-indazol-7-yl)-2-oxaspiro[3.3]heptan-6-ol]
> 10 µM	0.0001 to 10 µM	0.0001 to 10 µM	10 to 100 µM	O=S(=O)(NC1CC(O)(c2cc(Cl)cc3cn[nH]c23)C1)C1CC1 (centres unmarked) [Compound P-0045, N-(3-(5-chloro-1H-indazol-7-yl)-3-hydroxycyclobutyl)cyclopropanesulfonamide]
> 10 µM	0.0001 to 10 µM	> 10 µM	0.0001 to 10 µM	CC1(C)CC(O)(c2cc(Cl)cc3cn[nH]c23)CCN1S(C)(=O)=O (centres unmarked) [Compound P-0046, 4-(5-chloro-1H-indazol-7-yl)-2,2-dimethyl-1-(methylsulfonyl)piperidin-4-ol]
0.0001 to 10 µM	0.0001 to 10 µM	0.0001 to 10 µM	0.0001 to 10 µM	OC1(c2cc(Cl)cc3cn[nH]c23)CC2(CCCC2)C1 [Compound P-0048, 2-(5-chloro-1H-indazol-7-yl)spiro[3.4]octan-2-ol]
0.0001 to 10 µM	0.0001 to 10 µM	0.0001 to 10 µM	0.0001 to 10 µM	Cc1ccc2cn[nH]c2c1C(O)C1(C(F)(F)F)CCCC1 (centres unmarked) [Compound P-0049, (6-methyl-1H-indazol-7-yl)(1-(trifluoromethyl)cyclopentyl)methanol]
0.0001 to 10 µM	0.0001 to 10 µM	> 10 µM	0.0001 to 10 µM	CC1(C(O)c2cc3c(c4cn[nH]c24)CCCC3)CCCCC1 (centres unmarked) [Compound P-0050, (1-methylcyclohexyl)(6,7,8,9-tetrahydro-3H-benzo[e]indazol-4-yl)methanol]
0.0001 to 10 µM	0.0001 to 10 µM	0.0001 to 10 µM	0.0001 to 10 µM	CC1(C(O)c2c(F)c(Cl)cc3cn[nH]c23)CCCCC1 (centres unmarked) [Compound P-0052, (5-chloro-6-fluoro-1H-indazol-7-yl)(1-methylcyclohexyl)methanol]
0.0001 to 10 µM	0.0001 to 10 µM	0.0001 to 10 µM	0.0001 to 10 µM	CC1(C(O)c2cc(Cl)c(F)c3cn[nH]c23)CCCCC1 (centres unmarked) [Compound P-0055, (5-chloro-4-fluoro-1H-indazol-7-yl)(1-methylcyclohexyl)methanol]
0.0001 to 10 µM	0.0001 to 10 µM	> 10 µM	0.0001 to 10 µM	OC(c1cccc2cncn12)C1CCCC1 (centres unmarked) [Compound P-0058, cyclopentyl(imidazo[1,5-a]pyridin-5-yl)methanol]

Second part, the compound before the results:

Compound	IC50 [1]	IC50 [2]	IC50 [3]	IC50 [4]
CC1(C(O)c2cc(Cl)cc3cn[nH]c23)CCC(F)(F)CC1 (centres unmarked) [Compound P-0032, (5-chloro-1H-indazol-7-yl)(4,4-difluoro-1-methylcyclohexyl)methanol]	0.0001 to 10 µM	0.0001 to 10 µM	0.0001 to 10 µM	0.0001 to 10 µM
OC1(c2c(Cl)c(Cl)cc3cn[nH]c23)CC2(CCC2)C1 [Compound P-0036, 2-(5,6-dichloro-1H-indazol-7-yl)spiro[3.3]heptan-2-ol]	0.0001 to 10 µM	0.0001 to 10 µM	> 10 µM	0.0001 to 10 µM
Cc1ccc2cn[nH]c2c1C(O)C12CC3CC(CC(C3)C1)C2 (centres unmarked) [Compound P-0037, ((ls,3s)-adamantan-1-yl)(6-methyl-1H-indazol-7-yl)methanol]	0.0001 to 10 µM	0.0001 to 10 µM	> 10 µM	0.0001 to 10 µM
OC1(c2cc(Cl)cc3cn[nH]c23)CC2(CSC2)C1 [Compound P-0040, 6-(5-chloro-1H-indazol-7-yl)-2-thiaspiro[3.3]heptan-6-ol]	0.0001 to 10 µM	0.0001 to 10 µM	0.0001 to 10 µM	0.0001 to 10 µM
CC1(C(O)c2cc(F)cc3cn[nH]c23)CCCCC1 (centres unmarked) [Compound P-0041, (5-fluoro-1H-indazol-7-yl)(1-methylcyclohexyl)methanol]	0.0001 to 10 µM	0.0001 to 10 µM	0.0001 to 10 µM	0.0001 to 10 µM
OC(c1cc(F)cc2cn[nH]c12)C1CCCCC1 (centres unmarked) [Compound P-0042, cyclohexyl(5-fluoro-1H-indazol-7-yl)methanol]	0.0001 to 10 µM	0.0001 to 10 µM	0.0001 to 10 µM	0.0001 to 10 µM
OC(c1cc(F)cc2cn[nH]c12)C12CC3CC(CC(C3)C1)C2 (centres unmarked) [Compound P-0043, adamantan-1-yl(5-fluoro-1H-indazol-7-yl)methanol]	0.0001 to 10 µM	0.0001 to 10 µM	> 10 µM	0.0001 to 10 µM
O=S(=O)(NC1CC(O)(c2cc(Cl)cc3cn[nH]c23)C1)c1ccccc1 (centres unmarked) [Compound P-0044, N-(3-(5-chloro-1H-indazol-7-yl)-3-hydroxycyclobutyl)benzenesulfonamide]	> 10 µM	10 to 100 µM	> 10 µM	100 to 200 µM
O=S1(=O)CCC(O)(c2cc(Cl)cc3cn[nH]c23)CC1 [Compound P-0047, 4-(5-chloro-1H-indazol-7-yl)-4-hydroxytetrahydro-2H-thiopyran 1,1-dioxide]	> 10 µM	0.0001 to 10 µM	0.0001 to 10 µM	0.0001 to 10 µM
OC1(c2cc(Cl)cc3cn[nH]c23)CC2(CCCCC2)C1 [Compound P-0051, 2-(5-chloro-1H-indazol-7-yl)spiro[3.5]nonan-2-ol]	0.0001 to 10 µM	0.0001 to 10 µM	0.0001 to 10 µM	0.0001 to 10 µM
OC(c1cc(Cl)cc2cn[nH]c12)C1(C(F)(F)F)CCCC1 (centres unmarked) [Compound P-0053, (5-chloro-1H-indazol-7-yl)(1-(trifluoromethyl)cyclopentyl)methanol]	0.0001 to 10 µM	0.0001 to 10 µM	0.0001 to 10 µM	0.0001 to 10 µM
CC1(C(O)c2c3c(cc4cn[nH]c24)CC3)CCCCC1 (centres unmarked) [Compound P-0054, (5,6-dihydro-1H-cyclobuta[f]indazol-7-yl)(1-methylcyclohexyl)methanol]	0.0001 to 10 µM	0.0001 to 10 µM	> 10 µM	0.0001 to 10 µM
OC(c1cccc2cncn12)C1CC2CCC1C2 (centres unmarked) [Compound P-0059, bicyclo[2.2.1]heptan-2-yl(imidazo[1,5-a]pyridin-5-yl)methanol]	0.0001 to 10 µM	0.0001 to 10 µM	> 10 µM	0.0001 to 10 µM

From patent publication US10508085B2, “Compounds and methods for IDO and TDO modulation, and indications therefor” (Plexxikon Inc., priority 2016, dated 2019)
